Seven compounds from patent publication US4748161A, “Triterpenyl esters of organic acids and hypolipidemic agents composed of them” (Amano Pharmaceutical Co., Ltd., priority 1984, dated 1988) can be followed below.

The subject of the assay is serum lipids and serum lipid hydroperoxide. The assay can be described thus: Pharmacological test method A for anti-hyperlipidemic activity (serum lipids, 2 weeks feeding). The format is in vivo, male Wistar strain rats. The settings on record: for AI [(TC - HDL-C)/(HDL-C)] / HDL-C in serum / LPO in serum / PL in serum / TC in serum / TG in serum: 1% in hyperlipidemic diet, 2 weeks; for AI % of diff. / AI Diff. / HDL-C % of diff. / HDL-C Diff. / LPO % of diff. / LPO Diff. / PL % of diff. / PL Diff. / TC % of diff. / TC Diff. / TG % of diff. / TG Diff.: versus control group. How it is done: Male Wistar strain rats (100±lg, each 10 rats were formed into a group) were used as test animals. Diet for the control group was prepared by thorough mixing of 20% casein, 62.5% glucose, 10% hydrogenated coconut oil, 2% agar powder, 4% vitamin-containing salt mixture, 1% cholesterol, and 0.5% cholic acid (this composition is described by Fukushima et al, in "Yakugaku Zassi", 89, No. 6, pp. 857-862 (1962)). Diet for the test groups was prepared by good mixing of 1% each of cycloartenol, 24-methylenecycloartanol, and cyclobranol with the control group's diet. Each rat was kept in a cage at a constant temperature of 23±1° C. and a constant R.H. of 55±5% for 2 weeks, during which 10 g/day of the prescribed was given. Finally the rats were fasted from food except water for 16 hours (from 4 p.m. of the 14th test day to 8 a.m. of the 15th test day), and under anesthesia with pentbarbital sodium (tradename: Nembutal), blood was taken from each rat through the descending abdominal arota. Then, TC, HDL-C, TG, PL, and LPO in the serum were measured in the manner that will be described below.
A TC kit-K (supplied by Nippon Shoji Kaisha, Ltd.) was used. The principle of this determination is as follows: The ester of cholesterol in the serum is hydrolyzed with cholesterol-ester hydrolase into free cholesterol and fatty acids. All the free cholesterol is oxidized with cholesterol oxydase to form Δ^4 -cholestenone and hydrogen peroxide. Phenol and 4-aminoantipyrin are oxidatively condensed together by the formed hydrogen peroxide and peroxydase. The produced red quinone coloring matter is measured by colorimetry for absorbance at 500 nm using a spectrophotometer, thereby determining the TC:
The color-developing liquid (3.0 ml) is well mixed with the sample serum (0.02 ml). The mixture once heated at 37° C. for 15 minutes, is measured for absorbance at 500 nm with a spectrophotometer. The found absorbance is denoted by EA. On the other hand, the color-developing liquid (3.0 ml) is well mixed with the standard solution. The mixture is treated and measured for absorbance at 500 nm in the same manner as the above. This found absorbance is denoted by ES. Both EA and ES are determined with reference to the value of the blank test conducted using the color-developing liquid (3.0 ml) alone. [formula]
An HDL-C kit-N (supplied by Nippon Shoji Kaisha, Ltd.) was used. […] (VLDL) and lo density lipoprotein (LDL) in the serum is precipitated by the action of heparin. The precipitate is separated by centrifugation. High density lipoprotein (HDL) is dissolved in the separated supernatant. Esters of cholesterol in this fraction is hydrolyzed with cholesterol-ester hydrolase into free cholesterol and fatty acids. All the free cholesterol is oxidized with cholesterol oxydase to form Δ^4 -cholestenone and hydrogen peroxide. Phenol and 4-aminoantipyrine are oxidatively condensed together by the formed hydrogen peroxide and peroxydase. The produced red quinone coloring matter is measured by colorimetry for absorbance at 500 nm using a spectrophotometer, thereby determining the HDL-C.
A PL kit-K (supplied by Nippon Shoji Kaisha, Ltd.) was used for the determination. Lecithin, sphingomyelin, and lysolecithin are decomposed by phospholipase D into choline and phosphatidic acid, N-acylsphingosyl phosphate, or lysophosphatidic acid, respectively. The resulting choline is quantitatively decomposed by choline oxydase into hydrogen peroxide and betaine. With this hydrogen peroxide, and aid of peroxydase, phenol and 4-aminoantipyrin are condensed into red quinone pigment, then the absorbance at 500 nm of which is measured with a spectrophotometer, thereby determining the PL.
Serum TG level was determined by means of a triglyceride test kit (supplied by Wako Pure Chemical Industries, Ltd.) in which acetylacetone is used for a reagent, in the following manner: Serum proteins are precipitated, when isopropyl alcohol and the sample serum are mixed. […]

As for `CC(C)=CCCC(C)C1CCC2(C)C3CCC4C(C)(C)C(OC(=O)c5cccnc5)CCC45CC35CCC12C` (stereo not drawn) [Example 24, cycloartenyl nicotinate], the “AI [(TC - HDL-C)/(HDL-C)]” value was found to be 0.748, the HDL-C in serum was 94.0 mg/dL, the LPO in serum was 1.93 nmol/mL and the PL in serum is 133.8 mg/dL. Further, the TC in serum is 164.3 mg/dL, the TG in serum is 34.7 mg/dL, the “AI % of diff.” value is reported as -38.8% and the “AI Diff.” value is given as -0.474. Also, the “HDL-C % of diff.” value is reported as “+8.7%”, the “HDL-C Diff.” value is given as “+7.5 mg/dl”, the “LPO % of diff.” value is -13.7% and the “LPO Diff.” value was -0.31 nmol/mL. Further, the “PL % of diff.” value is -22.5%, the “PL Diff.” value was -38.8 mg/dL, the “TC % of diff.” value was -14.5% and the “TC Diff.” value is -27.9 mg/dL. Moreover, the “TG % of diff.” value is given as 4.3% and the “TG Diff.” value is -1.6 mg/dL.
`CCOc1cc(C(=O)OC2CCC34CC35CCC3(C)C(C(C)CCC(C)=C(C)C)CCC3(C)C5CCC4C2(C)C)ccc1O` (stereo not drawn) [Example 62, cyclobranyl-3-ethoxy-4-hydroxybenzoate]: the “AI [(TC - HDL-C)/(HDL-C)]” value is listed as 0.474, the HDL-C in serum was 108.2 mg/dL, the LPO in serum was 1.94 nmol/mL and the PL in serum stood at 156.5 mg/dL. The TC in serum worked out at 159.5 mg/dL, the TG in serum was 32.0 mg/dL, the “AI % of diff.” value is -52.7% and the “AI Diff.” value is reported as -0.528. In addition, the “HDL-C % of diff.” value is “+12.5%”, the “HDL-C Diff.” value is reported as “+12.0 mg/dl”, the “LPO % of diff.” value is -16.8% and the “LPO Diff.” value is -0.39 nmol/mL. For the same compound, the “PL % of diff.” value was -13.5%, the “PL Diff.” value was -24.4 mg/dL, the “TC % of diff.” value stood at 17.2% and the “TC Diff.” value was -33.1 mg/dL. In addition, the “TG % of diff.” value was -3.6% and the “TG Diff.” value is -1.2 mg/dL.
As to `C=C(CCC(C)C1CCC2(C)C3CCC4C(C)(C)C(OC(=O)C=Cc5ccc(OC(C)=O)cc5)CCC45CC35CCC12C)C(C)C` (stereo not drawn) [Example 83, 24-Methylenecycloartanyl ester of p-acetoxycinnamic acid], the “AI [(TC - HDL-C)/(HDL-C)]” value is 1.059, the HDL-C in serum was 93.3 mg/dL, the LPO in serum stood at 2.02 nmol/mL and the PL in serum amounted to 162.1 mg/dL. The TC in serum is 192.1 mg/dL, the TG in serum was 41.1 mg/dL, the “AI % of diff.” value is given as -37.1% and the “AI Diff.” value is reported as -0.625. The “HDL-C % of diff.” value is “+15.3%”, the “HDL-C Diff.” value was “+12.4 mg/dl”, the “LPO % of diff.” value is on record as -12.7% and the “LPO Diff.” value is -0.29 nmol/mL. The “PL % of diff.” value is -9.8%, the “PL Diff.” value was -17.6 mg/dL, the “TC % of diff.” value is -11.5% and the “TC Diff.” value is -25.0 mg/dL. Further, the “TG % of diff.” value is on record as -4.0% and the “TG Diff.” value was -1.7 mg/dL.
Regarding `CC(C)=CCCC(C)C1CCC2(C)C3CCC4C(C)(C)C(OC(=O)C=Cc5ccc(N)cc5)CCC45CC35CCC12C` (stereo not drawn) [Example 102, cycloartenyl ester of p-amino-cinnamic acid], the “AI [(TC - HDL-C)/(HDL-C)]” value came out at 3.262, the HDL-C in serum was found to be 48.1 mg/dL, the LPO in serum came to 2.02 nmol/mL and the PL in serum is 140.9 mg/dL. In addition, the TC in serum came out at 205.0 mg/dL, the TG in serum stood at 26.7 mg/dL, the “AI % of diff.” value was -58.4% and the “AI Diff.” value is on record as -4.578. Further, the “HDL-C % of diff.” value is given as “+30.4%”, the “HDL-C Diff.” value is recorded as “+11.2 mg/dl”, the “LPO % of diff.” value is given as -27.9% and the “LPO Diff.” value is -0.78 nmol/mL. For the same compound, the “PL % of diff.” value was -14.9%, the “PL Diff.” value was -24.7 mg/dL, the “TC % of diff.” value is -37.2% and the “TC Diff.” value is -121.2 mg/dL. The “TG % of diff.” value was -21.5% and the “TG Diff.” value is -7.3 mg/dL.
In the case of `CC(C)=CCCC(C)C1CCC2(C)C3CCC4C(C)(C)C(OC(=O)c5ccc(N)cc5)CCC45CC35CCC12C` (stereo not drawn) [Example 19, cycloartenyl-p-aminobenzoate], the “AI [(TC - HDL-C)/(HDL-C)]” value was determined as 0.699, the HDL-C in serum came out at 91.9 mg/dL, the LPO in serum stood at 1.63 nmol/mL and the PL in serum was found to be 153.6 mg/dL. The TC in serum worked out at 156.1 mg/dL, the TG in serum stood at 31.6 mg/dL, the “AI % of diff.” value was -42.8% and the “AI Diff.” value is reported as -0.523. Besides, the “HDL-C % of diff.” value was “+6.2%”, the “HDL-C Diff.” value is “+5.4 mg/dl”, the “LPO % of diff.” value is on record as -27.2% and the “LPO Diff.” value is -0.61 nmol/mL. Moreover, the “PL % of diff.” value is reported as -11.0%, the “PL Diff.” value was -19.0 mg/dL, the “TC % of diff.” value was -18.8% and the “TC Diff.” value was -36.1 mg/dL. Moreover, the “TG % of diff.” value is reported as -12.9% and the “TG Diff.” value is -4.7 mg/dL.
As to `CC(C)=CCCC(C)C1CCC2(C)C3CCC4C(C)(C)C(OC(=O)c5ccccc5[N+](=O)[O-])CCC45CC35CCC12C` (stereo not drawn) [Example 16, cycloartenyl-o-nitrobenzoate], the “AI [(TC - HDL-C)/(HDL-C)]” value is 1.529, the HDL-C in serum was 59.4 mg/dL, the LPO in serum came to 2.04 nmol/mL and the PL in serum came out at 140.1 mg/dL. Besides, the TC in serum is 150.2 mg/dL, the TG in serum was determined as 22.0 mg/dL, the “AI % of diff.” value is listed as -17.2% and the “AI Diff.” value is -0.318. Further, the “HDL-C % of diff.” value is “+1.2%”, the “HDL-C Diff.” value is recorded as “+0.7 mg/dl”, the “LPO % of diff.” value is listed as -12.8% and the “LPO Diff.” value is -0.30 nmol/mL. Further, the “PL % of diff.” value is recorded as -5.6%, the “PL Diff.” value is -8.3 mg/dL, the “TC % of diff.” value is -10.1% and the “TC Diff.” value was -16.9 mg/dL. Also, the “TG % of diff.” value is on record as -11.3% and the “TG Diff.” value is -2.8 mg/dL.
In the case of `CC(C)=C(C)CCC(C)C1CCC2(C)C3CCC4C(C)(C)C(OC(=O)C=Cc5ccc(N)cc5)CCC45CC35CCC12C` (stereo not drawn) [Example 104, cyclobranyl ester of p-aminocinnamic acid], the “AI [(TC - HDL-C)/(HDL-C)]” value amounted to 3.205, the HDL-C in serum worked out at 48.7 mg/dL, the LPO in serum worked out at 2.01 nmol/mL and the PL in serum was 143.7 mg/dL. In addition, the TC in serum was 204.8 mg/dL, the TG in serum was 27.4 mg/dL, the “AI % of diff.” value was -59.1% and the “AI Diff.” value is recorded as -4.635. Moreover, the “HDL-C % of diff.” value is on record as “+32.0%”, the “HDL-C Diff.” value is recorded as “+11.8 mg/dl”, the “LPO % of diff.” value is given as -28.2% and the “LPO Diff.” value was -0.79 nmol/mL. For the same compound, the “PL % of diff.” value is recorded as -13.2%, the “PL Diff.” value is -21.9 mg/dL, the “TC % of diff.” value was -37.2% and the “TC Diff.” value was -121.4 mg/dL. The “TG % of diff.” value is -19.4% and the “TG Diff.” value is -6.6 mg/dL.
